PubChem BioAssay AID1963973 (Molecular Pharmacology Branch, DTP, NCI, 2024)
pIC50: −log10 of the molar value.

System: 883617-216-R-J1-PDC tumor spheroids, viability
Test: Anticancer human tumor 883617-216-R-J1-PDC patient-derived bladder carcinoma cell line growth inhibition [PI3K]
Details: spheroids with HUVEC and MSC; for pIC50: curve of first compound; for viability, T/C: stronger effect = lower value
Summary of the method: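 We assembled tumor spheroids that included a stromal compartment of HUVEC and MSCs, then exposed them to targeted agents alone and together with PI3K pathway inhibitors. Concentration series descended by half-log from clinically achievable Cmax levels. Viability served as the endpoint.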

[1] = second compound 0.0316 µM, first compound 0.0316 µM
[2] = second compound 0.0316 µM, first compound 0.1 µM
[3] = second compound 0.1 µM, first compound 0.0316 µM
[4] = second compound 0.1 µM, first compound 0.1 µM
[5] = second compound 0.316 µM, first compound 0.0316 µM
[6] = second compound 0.316 µM, first compound 0.1 µM
[7] = second compound 1 µM, first compound 0.0316 µM
[8] = second compound 1 µM, first compound 0.1 µM
[9] = second compound 3.16 µM, first compound 0.0316 µM
[10] = second compound 3.16 µM, first compound 0.1 µM
[11] = second compound 10 µM, first compound 0.0316 µM
[12] = second compound 10 µM, first compound 0.1 µM
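Note: spheroids exposed to agents for 7 days before the viability read.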

Q: How did the pIC50 (second compound 0.0316 µM) turn out when `CC(=O)c1c(C)c2cnc(Nc3ccc(N4CCNCC4)cn3)nc2n(C2CCCC2)c1=O` + CC(Nc1ncnc2nc[nH]c12)c1cc2cccc(Cl)c2c(=O)n1-c1ccccc1 was run?
A: 7.07

Q: And the pIC50 (second compound 0.1 µM)?
A: 7.10

Q: And the pIC50 (second compound 0.316 µM)?
A: 7.12

Q: And the pIC50 (second compound 1 µM)?
A: 7.33

Q: What about the pIC50 (second compound 3.16 µM) of the same compound?
A: 7.64

Q: What about the pIC50 (second compound 10 µM) of the same compound?
A: > 9.50

Q: What about the viability, T/C (second compound 0.0316 µM, first compound 0.000316 µM) of the same compound?
A: 92.9%

Q: And the viability, T/C (second compound 0.0316 µM, first compound 0.001 µM)?
A: 94.6%

Q: What about the viability, T/C (second compound 0.0316 µM, first compound 0.00316 µM) of the same compound?
A: 87.7%

Q: What about the viability, T/C (second compound 0.0316 µM, first compound 0.01 µM) of the same compound?
A: 86.6%

Q: And the viability, T/C [1]?
A: 79.6%

Q: What about the viability, T/C [2] of the same compound?
A: 45.2%

Q: And the viability, T/C (second compound 0.1 µM, first compound 0.000316 µM)?
A: 96%

Q: And the viability, T/C (second compound 0.1 µM, first compound 0.001 µM)?
A: 107%

Q: And the viability, T/C (second compound 0.1 µM, first compound 0.00316 µM)?
A: 76.3%

Q: And the viability, T/C (second compound 0.1 µM, first compound 0.01 µM)?
A: 79.8%

Q: And the viability, T/C [3]?
A: 86.3%

Q: And the viability, T/C [4]?
A: 40.8%

Q: And the viability, T/C (second compound 0.316 µM, first compound 0.000316 µM)?
A: 100%

Q: What about the viability, T/C (second compound 0.316 µM, first compound 0.001 µM) of the same compound?
A: 95.3%

Q: What about the viability, T/C (second compound 0.316 µM, first compound 0.00316 µM) of the same compound?
A: 87.1%

Q: And the viability, T/C (second compound 0.316 µM, first compound 0.01 µM)?
A: 84.3%

Q: What about the viability, T/C [5] of the same compound?
A: 58.8%

Q: What about the viability, T/C [6] of the same compound?
A: 47.3%

Q: What about the viability, T/C (second compound 1 µM, first compound 0.000316 µM) of the same compound?
A: 98%

Q: And the viability, T/C (second compound 1 µM, first compound 0.001 µM)?
A: 78.3%

Q: And the viability, T/C (second compound 1 µM, first compound 0.00316 µM)?
A: 80.3%

Q: And the viability, T/C (second compound 1 µM, first compound 0.01 µM)?
A: 71.3%

Q: And the viability, T/C [7]?
A: 58.6%

Q: What about the viability, T/C [8] of the same compound?
A: 36.4%

Q: What about the viability, T/C (second compound 3.16 µM, first compound 0.000316 µM) of the same compound?
A: 76%

Q: And the viability, T/C (second compound 3.16 µM, first compound 0.001 µM)?
A: 61.3%

Q: And the viability, T/C (second compound 3.16 µM, first compound 0.00316 µM)?
A: 68.8%

Q: And the viability, T/C (second compound 3.16 µM, first compound 0.01 µM)?
A: 58.6%

Q: What about the viability, T/C [9] of the same compound?
A: 44.1%

Q: What about the viability, T/C [10] of the same compound?
A: 38.1%

Q: And the viability, T/C (second compound 10 µM, first compound 0.000316 µM)?
A: 52.7%

Q: What about the viability, T/C (second compound 10 µM, first compound 0.001 µM) of the same compound?
A: 39.4%

Q: And the viability, T/C (second compound 10 µM, first compound 0.00316 µM)?
A: 41.4%

Q: What about the viability, T/C (second compound 10 µM, first compound 0.01 µM) of the same compound?
A: 46.4%

Q: And the viability, T/C [11]?
A: 31.9%

Q: And the viability, T/C [12]?
A: 23.9%

Q: What does the source list for `CCCS(=O)(=O)Nc1ccc(F)c(C(=O)c2c[nH]c3ncc(-c4ccc(Cl)cc4)cc23)c1F` + CC(Nc1ncnc2nc[nH]c12)c1cc2cccc(Cl)c2c(=O)n1-c1ccccc1?
A: pIC50 (second compound 0.0316 µM): 5.38; pIC50 (second compound 0.1 µM): 5.33; pIC50 (second compound 0.316 µM): 5.34; pIC50 (second compound 1 µM): 5.41; pIC50 (second compound 3.16 µM): 5.44; pIC50 (second compound 10 µM): 5.77; viability, T/C [1]: 94.8%; viability, T/C [2]: 92.3%; viability, T/C (second compound 0.0316 µM, first compound 0.316 µM): 97.1%; viability, T/C (second compound 0.0316 µM, first compound 1 µM): 102%; viability, T/C (second compound 0.0316 µM, first compound 3.16 µM): 63.4%; viability, T/C (second compound 0.0316 µM, first compound 10 µM): 9.37%; viability, T/C [3]: 85%; viability, T/C [4]: 91.8%; viability, T/C (second compound 0.1 µM, first compound 0.316 µM): 114%; viability, T/C (second compound 0.1 µM, first compound 1 µM): 85.1%; viability, T/C (second compound 0.1 µM, first compound 3.16 µM): 70.5%; viability, T/C (second compound 0.1 µM, first compound 10 µM): 10.7%; viability, T/C [5]: 91.8%; viability, T/C [6]: 91.1%; viability, T/C (second compound 0.316 µM, first compound 0.316 µM): 95%; viability, T/C (second compound 0.316 µM, first compound 1 µM): 97.1%; viability, T/C (second compound 0.316 µM, first compound 3.16 µM): 67.7%; viability, T/C (second compound 0.316 µM, first compound 10 µM): 11.3%; viability, T/C [7]: 99.9%; viability, T/C [8]: 89%; viability, T/C (second compound 1 µM, first compound 0.316 µM): 87.9%; viability, T/C (second compound 1 µM, first compound 1 µM): 72.4%; viability, T/C (second compound 1 µM, first compound 3.16 µM): 65.1%; viability, T/C (second compound 1 µM, first compound 10 µM): 9.68%; viability, T/C [9]: 75.3%; viability, T/C [10]: 75.7%; viability, T/C (second compound 3.16 µM, first compound 0.316 µM): 72.1%; viability, T/C (second compound 3.16 µM, first compound 1 µM): 71.5%; viability, T/C (second compound 3.16 µM, first compound 3.16 µM): 55.2%; viability, T/C (second compound 3.16 µM, first compound 10 µM): 10.6%; viability, T/C [11]: 52.9%; viability, T/C [12]: 57.4%; viability, T/C (second compound 10 µM, first compound 0.316 µM): 55.3%; viability, T/C (second compound 10 µM, first compound 1 µM): 66.5%; viability, T/C (second compound 10 µM, first compound 3.16 µM): 40.5%; viability, T/C (second compound 10 µM, first compound 10 µM): 11.8%
